Patent publication US7238670B2, “Human glucagon-like-peptide-1 mimics and their use in the treatment of diabetes and related conditions” (Bristol-Myers Squibb Company, priority 2001, dated 2007)
pEC50: −log10 of the molar value. Like-named read-outs stand apart in the source and are kept apart here.

Biological target: T1, human glucagon-like peptide 1 receptor (Homo sapiens, UniProt P43220)
T1 construct: Full-length human glucagon-like peptide 1 receptor was stably expressed in CHO-K1 cells; expressed in transfected cells; host or cells: CHO-K1 (clone CHO-GLP1R-19)
Assay: Cyclic AMP determination in CHO-K1 cells stably expressing the GLP-1 receptor (cAMP SPA)
Type: cell-based
Conditions: CHO-GLP1R-19 cells, read-out: EC50, stimulation of cAMP production
Protocol: CHO-GLP-1R-19 cells (2,500 in 100 μl of media) were plated into each well of a 96-well tissue culture microtiter plate and incubated in 5% CO2 atmosphere at 37° C., for 72 h. On the day of the assay, cells were washed once with 100 μl of PBS. […] After incubation at room temperature for 15-18 h, plates were counted 2 min each/well in a TopCount NXT(Packard).
The data obtained was processed in Excel-fit database. From a cyclic AMP standard curve, the amounts of released cAMP were determined and the % maximal activity was calculated and plotted against log compound concentration. The data was analyzed by nonlinear regression curve fit (sigmoidal dose) to determine the EC50 of the compounds.

T1 sequence (P43220 24-463): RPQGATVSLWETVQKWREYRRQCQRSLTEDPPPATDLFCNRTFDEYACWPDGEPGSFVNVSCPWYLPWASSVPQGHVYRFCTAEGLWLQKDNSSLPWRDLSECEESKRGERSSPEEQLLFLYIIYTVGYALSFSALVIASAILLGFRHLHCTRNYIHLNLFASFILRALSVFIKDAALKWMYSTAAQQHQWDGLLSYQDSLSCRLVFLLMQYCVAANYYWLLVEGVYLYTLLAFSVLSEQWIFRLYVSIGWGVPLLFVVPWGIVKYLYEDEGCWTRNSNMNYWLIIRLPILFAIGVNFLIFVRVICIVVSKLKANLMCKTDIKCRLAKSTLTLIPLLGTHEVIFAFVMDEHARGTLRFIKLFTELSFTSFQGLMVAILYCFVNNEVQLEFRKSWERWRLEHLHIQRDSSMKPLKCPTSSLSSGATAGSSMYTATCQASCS

| pEC50 (same assay) | pEC50 (determined as in Example 13) | SMILES |
| --- | --- | --- |
| < 3.00 | – | C[C@H](NC(=O)[C@@H](N)Cc1c[nH]cn1)C(=O)N[C@@H](CCC(=O)O)C(=O)NCC(=O)N[C@H](C(=O)N[C@@H](Cc1ccccc1)C(=O)N[C@H](C(=O)N[C@@H](CO)C(=O)N[C@@H](CC(=O)O)C(N)=O)[C@@H](C)O)[C@@H](C)O |
| – | 5.96 | C[C@H](NC(=O)[C@@H](N)Cc1cnc[nH]1)C(=O)N[C@@H](CCC(=O)O)C(=O)NCC(=O)N[C@H](C(=O)N[C@@H](Cc1ccccc1)C(=O)N[C@H](C(=O)N[C@@H](CO)C(=O)N[C@@H](CC(=O)O)C(=O)N[C@@H](Cc1ccc(-c2ccccc2)cc1)C(=O)N[C@@H](Cc1ccc(-c2ccccc2)cc1)C(N)=O)[C@@H](C)O)[C@@H](C)O [GLP-1 11-mer peptide analog, His-Ala-Clu-Gly-Thr-Phe-Thr-Ser-Asp-Bip-Bip-NH2] |
